Test results reported in patent US20100222309A1, “SKIN PROPERTY-IMPROVING THERAPEUTIC AGENT COMPRISING A MORPHINAN DERIVATIVE OR ANY OF ITS PHARMACOLOGICALLY PERMISSIBLE ACID ADDITION SALTS AS AN ACTIVE INGREDIENT” (TORAY INDUSTRIES, INC., priority 2007, published 2010).

System: itch patients treated with hemodialysis
Experiment: Oral administration of compound 1 soft capsules to itch patients treated with hemodialysis; skin properties and itching observed
[1] = one of the patients, after end of administration

CN(C(=O)/C=C/c1ccoc1)[C@@H]1CC[C@@]2(O)[C@H]3Cc4ccc(O)c5c4[C@@]2(CCN3CC2CC2)[C@H]1O5.Cl [compound 1]
itching [1]: began to feel itching again
skin moisture [1]: began to have dry skin
itching (patient, two capsules (5.0 μg) oral, after start of administration): began to feel less itching
